{
  "source": "patent US4661294A",
  "about": "“Biologically active 1-thio derivatives of vitamin D” (The General Hospital Corporation, priority 1985, dated 1987)",
  "key": {"[1]": {"tested_on": "human fibroblasts", "assay": "human fibroblast cell proliferation", "format": "cell-based", "settings": "for effect on the inhibitory effect of 1-alpha,25-dihydroxyvitamin D3 on cell generation: added to the 1-alpha,25-dihydroxy compound", "method": "FIG. 4 is a graph comparing the effects of ethanol ( ), ethanol plus 1-alpha,25-dihydroxyvitamin D3 ( ), and 1-beta-thio-25-hydroxyvitamin D3 and 1-alpha,25-dihydroxyvitamin D3 ( ) on human fibroblast cell proliferation.\nTo confirm this, the effects of various compounds on cell proliferation rates were studied, using human fibroblasts to evaluate activity. Human fibroblasts were prepared as described by Clemens, J. Clin. Endocrinol. Met., 56: 197 (1983). In the study, 2.5×10^5 cells, in quadruplicate, were exposed to (a) 95% ethanol; (b) ethanol plus 1-alpha-25-dihydroxyvitamin D3 ( ); or (c) 1-beta-thio-25-hydroxyvitamin D3 plus 1-alpha, 25-dihydroxyvitamin D3 ( ). As may be seen from FIG. 4, the 1-alpha-25-dihydroxy-vitamin D3 inhibited cell generation by about 30% ( ). […] Further, the 1-thio compound alone had no effect on cell generation time (data not shown)."}, "[2]": {"biological_target": "T1, chick cytosolic receptor (1,25-dihydroxyvitamin receptor site) (Gallus gallus, UniProt O42392)", "T1 sequence (O42392 1-451)": "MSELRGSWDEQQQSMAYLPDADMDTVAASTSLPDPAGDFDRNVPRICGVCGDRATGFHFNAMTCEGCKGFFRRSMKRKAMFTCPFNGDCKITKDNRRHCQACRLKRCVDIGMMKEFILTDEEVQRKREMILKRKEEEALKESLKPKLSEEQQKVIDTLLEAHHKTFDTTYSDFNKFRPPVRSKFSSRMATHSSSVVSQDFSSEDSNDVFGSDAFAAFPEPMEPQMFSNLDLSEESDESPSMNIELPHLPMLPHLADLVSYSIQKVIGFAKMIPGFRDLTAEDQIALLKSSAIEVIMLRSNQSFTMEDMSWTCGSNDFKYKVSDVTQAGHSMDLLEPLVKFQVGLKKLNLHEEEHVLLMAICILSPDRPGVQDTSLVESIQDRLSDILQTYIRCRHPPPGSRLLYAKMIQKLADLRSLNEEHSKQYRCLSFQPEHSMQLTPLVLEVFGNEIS", "assay": "competition with 3H-1,25-dihydroxyvitamin D3 for receptor site (procedure of Eisman et al.)", "format": "binding", "source_text": "FIG. 3 is a graph comparing the binding characteristics of 1-alpha,25-dihydroxyvitamin D3 ( ) and 1-beta-thio-25-hydroxyvitamin D3 (Δ) using chick cytosolic receptor.\nThus, the 1-beta-thio-25-hydroxyvitamin D3 can be used as a biologically active analogue of the natural compound."}, "[3]": {"settings": "literature reports; cited from earlier work"}},
  "data": [
    {"smiles": "C=C1/C(=C\\C=C2/CCC[C@]3(C)[C@@H]([C@H](C)CCCC(C)(C)O)CC[C@@H]23)C[C@@H](O)C[C@@H]1O", "note": "[1-alpha-25-dihydroxy-vitamin D3, 1-alpha,25-dihydroxyvitamin D3, reference compound]", "values": [
      {"measurement": "inhibition of cell generation", "setting": "[1]; human fibroblasts, 2.5×10^5 cells, FIG. 4", "value": "about 30%"}
    ]},
    {"smiles": "C=C1/C(=C\\C=C2/CCC[C@]3(C)[C@@H]([C@H](C)CCCC(C)(C)O)CC[C@@H]23)C[C@@H](O)C[C@H]1S", "note": "[1-beta-thio-25-hydroxyvitamin D3, 1-beta-thio-25-hydroxy vitamin D3]", "values": [
      {"measurement": "effect on the inhibitory effect of 1-alpha,25-dihydroxyvitamin D3 on cell generation", "setting": "[1]; human fibroblasts, FIG. 4", "value": "blocked the inhibitory effect"},
      {"measurement": "effect on the inhibitory effect of 1-alpha,25-dihydroxyvitamin D3 on cell generation", "setting": "[1]; human fibroblasts, FIG. 4, listed as 1-beta-thio-hydrovitamin D3", "value": "blocks the ability of the 1,25-dihydroxy compound from affecting in vitro fibroblast cell division"},
      {"measurement": "effect on cell generation time", "setting": "[1]; compound alone (data not shown)", "value": "no effect"},
      {"measurement": "competition with 3H-1,25-dihydroxyvitamin D3 for the receptor site / recognition by the cytosol receptor site", "setting": "[2]; FIG. 3", "value": "able to compete"},
      {"measurement": "competition with 3H-1,25-dihydroxyvitamin D3 for the receptor site / recognition by the cytosol receptor site", "setting": "[2]; FIG. 3, listed as 1-beta-thio-hydrovitamin D3", "value": "recognized by the cytosol receptor site"}
    ]},
    {"smiles": "C=C1/C(=C\\C=C2/CCC[C@]3(C)[C@@H]([C@H](C)CCCC(C)(C)F)CC[C@@H]23)C[C@@H](O)C[C@@H]1F", "note": "[1-alpha-25-difluoro vitamin D3]", "values": [
      {"measurement": "biological activity", "setting": "[3]", "value": "biologically inert"}
    ]},
    {"smiles": "C=C1/C(=C\\C=C2/CCC[C@]3(C)[C@@H]([C@H](C)CCCC(C)C)CC[C@@H]23)C[C@@H](O)CC1F", "note": "(some centres unmarked) [1-fluoro vitamin D3]", "values": [
      {"measurement": "biological activity", "setting": "[3]", "value": "possess biological activity"}
    ]}
  ]
}
